# Assay results reported in patent US8759504B2, “Cholinergic/serotoninergic receptor and uses thereof” (AbbVie Inc., priority 2007, dated 2014).
# “Also recorded” adds a separate entry of the source. Like-named read-outs stand apart in the source and are kept apart here.
# Columns and labels:
# [1] = molecular target: T1, wild-type α7 nicotinic acetylcholine receptor (Homo sapiens, UniProt P36544); test: Two electrode voltage clamp in Xenopus oocytes, agonist and modulator responses; format: cell-based; settings: for Effect of modulator on ACh-evoked current (words): Xenopus oocytes
# T1 construct: expressed in transfected cells; host or cells: Xenopus laevis oocytes
# [2] = molecular target: T2, wild-type human 5-HT3A receptors (Homo sapiens, UniProt P46098); test: as above; format: cell-based
# T2 construct: expressed in transfected cells; host or cells: Xenopus laevis oocytes
# T2 sequence (P46098 1-484 isoform P46098-4): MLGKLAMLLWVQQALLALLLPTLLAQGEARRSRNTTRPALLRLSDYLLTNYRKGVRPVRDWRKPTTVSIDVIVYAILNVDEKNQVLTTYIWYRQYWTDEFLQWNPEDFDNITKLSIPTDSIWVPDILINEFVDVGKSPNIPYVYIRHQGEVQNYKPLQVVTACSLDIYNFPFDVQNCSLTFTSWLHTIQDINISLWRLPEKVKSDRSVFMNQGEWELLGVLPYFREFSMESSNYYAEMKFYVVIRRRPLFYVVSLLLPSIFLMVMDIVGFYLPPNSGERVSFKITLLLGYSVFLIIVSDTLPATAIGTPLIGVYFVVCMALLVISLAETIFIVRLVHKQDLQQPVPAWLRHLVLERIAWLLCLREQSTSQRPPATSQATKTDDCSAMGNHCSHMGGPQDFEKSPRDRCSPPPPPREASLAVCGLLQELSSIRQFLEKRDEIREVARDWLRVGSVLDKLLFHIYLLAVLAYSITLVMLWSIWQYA
# [3] = molecular target: T3, rat brain α7* nicotinic acetylcholine receptors (Rattus norvegicus, UniProt Q05941); test: [3H]A-585539 radioligand binding, rat brain homogenates; settings: rat cortex, increasing concentrations
# T3 construct: expressed both as a native (rat cortex) or α7/5-HT3 chimeric receptor; from tissue; host or cells: rat brain / rat cortex homogenates
# Chimera 1 [4] = molecular target: T4, Chimera 1 (Homo sapiens, UniProt P36544, M226I/T225V); test: Membrane potential imaging (FLIPR-FMP) in HEK-293 cells; format: cell-based; set-up: expressed in transfected cells; settings: for Modulation of submaximum agonist-evoked membrane potential response (words): FMP
# Chimera 2 [5] = molecular target: T5, Chimera 2 (Homo sapiens, UniProt P36544, M226I/T225V); test: as above; format: cell-based; set-up: expressed in transfected cells; settings: for Modulation of submaximum agonist-evoked membrane potential response (words): FMP
# Chimera 2 [6] = molecular target: T5, Chimera 2; test: [3H]A-585539 radioligand binding, HEK-293 membranes/homogenates; set-up: expressed in transfected cells; settings: increasing concentrations
# Chimera 2 [7] = molecular target: T5, Chimera 2; test: Whole cell patch clamp in HEK-293 cells; format: cell-based; set-up: expressed in transfected cells
# Chimera 1 [8] = molecular target: T4, Chimera 1; test: Two electrode voltage clamp in Xenopus oocytes (POETs), agonist and modulator responses; format: cell-based; set-up: expressed in transfected cells; host or cells: Xenopus laevis oocytes (transient, A1)
# Chimera 2 [9] = molecular target: T5, Chimera 2; test: as above; format: cell-based; set-up: expressed in transfected cells; host or cells: Xenopus laevis oocytes (transient, A2)
# Chimera 8 = molecular target: T6, Chimera 8 (Homo sapiens, UniProt P46098, I238M/V237T); test: Two electrode voltage clamp in Xenopus oocytes, reverse 5HT3-α7 chimera; format: cell-based
# T6 construct: expressed in transfected cells; host or cells: Xenopus laevis oocytes
# Procedure: Xenopus laevis oocytes were prepared and injected as previously described {Eisele, 1993 #2; Krause, 1998 #4}. Briefly, ovaries were harvested from female Xenopus. Isolation of the oocytes was obtained by enzymatic dissociation using collagenase type I in a medium deprived of calcium and by gentle mechanical agitation for approximately 3 hours. Oocytes stage 5-6 were manually selected on the next day and injected into the nucleus with 2 ng plasmid containing the cDNA of interest. Oocytes were then placed in a 96 well microtiter plate in Barth solution and used for electrophysiological investigation two to five days later. All recordings were performed at 18° C. and cells were superfused with OR2 medium containing in mM:NaCl 82.5, KCI 2.5, HEPES 5, CaCl2.2H2O 2.5, MgCl2.6H2O 1, pH 7.4, and 0.5 μM atropine was added to prevent possible activation of endogenous muscarinic receptors. Unless indicated cells were held at −100 mV using a two electrode voltage clamp apparatus connected to a Geneclamp amplifier (Molecular Devices). Data were captured and analyzed using data acquisition and analysis software. […] Values indicated throughout the text are given with their respective standard error of the mean (SEM). For statistical analysis we used the unpaired, two-tailed Student's T test using either excel (Microsoft) or Matlab (Mathworks Inc.).
# To examine the putative role of the transmembrane domains, a reverse chimera comprising the 5-HT3 ligand binding domain and the transmembrane domain of α7 was designed and constructed. […] See FIGS. 13A and B. To best evaluate a putative allosteric modulation, currents evoked by low agonist concentration were also investigated, but exposure to either NS-1738 or PNU-120596 caused no detectable modification of the response amplitude or time course. […] Data not shown. […] The cartoon above the traces in FIG. 13 illustrates the schematic structure of a single subunit inserted into the membrane. The gray line corresponds to the extracellular 5HT3 receptor sequence, whereas the dark line indicates the α7 segments. Despite the low yield of expression, significant and reproducible currents were evoked by brief exposure to 5-HT.
# [10] = HEK-293 cells, listed as 5-hydroxyindole
# [11] = read-out: Maximum efficacy (mean±S.E.M.), agonist-evoked current
# [12] = HEK293, read-out: Maximum efficacy (mean±S.E.M.), membrane potential imaging, HEK-293 cells
# [13] = read-out: Agonist potency, membrane potential imaging: EC50 (95% C.I.), HEK-293 cells
# T4 sequence (P36544 with tags, fused parts or gaps T225V/M226I): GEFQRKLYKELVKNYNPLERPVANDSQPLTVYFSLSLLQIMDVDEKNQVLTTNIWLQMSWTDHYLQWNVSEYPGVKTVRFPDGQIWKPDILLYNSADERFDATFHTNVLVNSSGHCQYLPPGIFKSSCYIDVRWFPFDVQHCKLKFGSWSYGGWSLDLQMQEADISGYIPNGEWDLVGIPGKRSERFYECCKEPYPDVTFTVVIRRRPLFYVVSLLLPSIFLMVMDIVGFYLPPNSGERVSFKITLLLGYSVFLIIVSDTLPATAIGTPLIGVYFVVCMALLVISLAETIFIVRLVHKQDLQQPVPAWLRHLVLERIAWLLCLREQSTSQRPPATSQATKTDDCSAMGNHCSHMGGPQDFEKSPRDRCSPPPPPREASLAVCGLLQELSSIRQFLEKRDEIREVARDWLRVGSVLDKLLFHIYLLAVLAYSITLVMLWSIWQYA
# T1 sequence (P36544 23-502): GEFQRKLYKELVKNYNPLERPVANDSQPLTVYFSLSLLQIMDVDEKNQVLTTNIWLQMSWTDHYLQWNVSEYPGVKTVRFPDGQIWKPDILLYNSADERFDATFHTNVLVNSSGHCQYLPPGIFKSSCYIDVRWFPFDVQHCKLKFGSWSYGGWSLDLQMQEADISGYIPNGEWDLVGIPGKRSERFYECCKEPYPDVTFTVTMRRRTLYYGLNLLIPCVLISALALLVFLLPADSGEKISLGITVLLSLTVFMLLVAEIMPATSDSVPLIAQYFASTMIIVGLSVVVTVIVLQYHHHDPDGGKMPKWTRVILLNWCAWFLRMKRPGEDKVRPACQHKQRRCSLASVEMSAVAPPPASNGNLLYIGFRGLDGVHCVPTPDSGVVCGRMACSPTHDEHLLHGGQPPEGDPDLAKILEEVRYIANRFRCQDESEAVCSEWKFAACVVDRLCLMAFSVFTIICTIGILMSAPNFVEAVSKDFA
# T5 sequence (P36544 with tags, fused parts or gaps T225V/M226I): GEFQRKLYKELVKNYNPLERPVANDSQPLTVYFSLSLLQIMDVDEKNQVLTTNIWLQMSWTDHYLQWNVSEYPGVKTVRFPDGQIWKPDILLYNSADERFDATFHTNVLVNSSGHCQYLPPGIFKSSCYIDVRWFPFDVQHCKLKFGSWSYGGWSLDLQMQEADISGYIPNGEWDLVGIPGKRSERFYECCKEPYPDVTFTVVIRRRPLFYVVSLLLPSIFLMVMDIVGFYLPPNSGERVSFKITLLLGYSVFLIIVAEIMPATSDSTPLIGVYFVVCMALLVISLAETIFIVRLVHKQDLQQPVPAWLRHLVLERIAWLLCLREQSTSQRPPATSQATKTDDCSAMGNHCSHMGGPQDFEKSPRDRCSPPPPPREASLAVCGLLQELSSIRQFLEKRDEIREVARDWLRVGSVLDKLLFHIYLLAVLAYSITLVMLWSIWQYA
# T6 sequence (P46098 with tags, fused parts or gaps isoform P46098-4 V243T/I244M): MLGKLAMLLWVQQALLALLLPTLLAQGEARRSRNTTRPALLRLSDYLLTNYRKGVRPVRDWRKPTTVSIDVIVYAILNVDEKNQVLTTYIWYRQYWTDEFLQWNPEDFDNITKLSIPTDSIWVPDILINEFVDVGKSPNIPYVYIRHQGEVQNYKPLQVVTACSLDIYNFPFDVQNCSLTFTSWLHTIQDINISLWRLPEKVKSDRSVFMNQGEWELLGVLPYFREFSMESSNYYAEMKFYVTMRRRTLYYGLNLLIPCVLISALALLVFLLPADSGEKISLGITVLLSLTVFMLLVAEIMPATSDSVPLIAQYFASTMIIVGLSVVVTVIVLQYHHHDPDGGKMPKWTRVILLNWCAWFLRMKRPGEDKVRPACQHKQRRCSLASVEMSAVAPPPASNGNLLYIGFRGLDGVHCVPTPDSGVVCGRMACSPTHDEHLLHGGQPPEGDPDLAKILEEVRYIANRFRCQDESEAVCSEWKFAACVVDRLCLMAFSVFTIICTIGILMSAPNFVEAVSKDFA
# T3 sequence (Q05941 23-502): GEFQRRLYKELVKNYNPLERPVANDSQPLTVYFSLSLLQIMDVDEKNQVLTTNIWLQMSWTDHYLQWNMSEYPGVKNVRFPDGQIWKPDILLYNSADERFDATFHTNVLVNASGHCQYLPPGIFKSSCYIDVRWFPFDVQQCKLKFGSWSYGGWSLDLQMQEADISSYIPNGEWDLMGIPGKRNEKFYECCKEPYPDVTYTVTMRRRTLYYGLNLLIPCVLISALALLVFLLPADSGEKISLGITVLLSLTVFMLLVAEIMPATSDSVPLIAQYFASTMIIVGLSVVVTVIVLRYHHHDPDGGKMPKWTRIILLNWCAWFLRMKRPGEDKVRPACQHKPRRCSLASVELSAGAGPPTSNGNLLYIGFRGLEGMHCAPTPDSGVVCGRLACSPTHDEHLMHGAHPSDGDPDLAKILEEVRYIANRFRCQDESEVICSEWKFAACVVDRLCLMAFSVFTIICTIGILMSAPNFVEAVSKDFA
smiles,measurement,setting,value
"Oc1ccc2[nH]ccc2c1 [5-HI, 5-hydroxyindole]",EC50,[1],667 µM
same,Percentage potentiation of submaximum agonist-evoked responses (mean±S.E.M.),[1]; 100 μM ACh,516±59%
same,ng of ACh curve after modulator,[1]; 1 mM 5-HI,1.97 ± 0.84
same,EC50,"[1]; Positive allosteric modulation potency, two electrode voltage clamp: EC50 (95% C.I.), submaximum ACh (100 μM)-evoked response",500 to 700 µM
same,Effect of modulator on ACh-evoked current (words),[1],substantial increase in the amplitude of the subsequent ACh-evoked current
same,Percentage potentiation of submaximum agonist-evoked responses (mean±S.E.M.),[2]; 1-3 μM 5-HT,58±9%
same,Effect of modulator on agonist (5-HT)-evoked current,[2]; Xenopus oocytes,Neither compound increased the responses
same,inhibition at 10000 µM,"[2]; at 10,000 μM (10 mM), read-out: Observed % inhibitory effect on submaximum 5-HT-evoked response",~40%
same,Competition / displacement of [3H]A-585539 binding,[3],neither compound effectively displaced the binding
same,Modulation of submaximum agonist-evoked membrane potential response (words),Chimera 1 [4]; HEK-293 cells,potentiated the submaximum α7 agonist (NS6784) evoked membrane potential depolarization; also recorded: effective in both Chimeras
same,Modulation of submaximum agonist-evoked membrane potential response (words),Chimera 1 [4]; [10],able to potentiate both Chimeras
same,EC50,"Chimera 1 [4]; read-out: FMP imaging: positive allosteric modulation EC50 (95% C.I.), submaximum NS6784 (120-200 nM)",234 µM
same,Maximum positive allosteric modulation efficacy,Chimera 1 [4]; submaximum NS6784 120-200 nM,204±9%
same,Modulation of submaximum agonist-evoked membrane potential response (words),Chimera 2 [5]; HEK-293 cells,potentiated submaximum NS6784 evoked responses; also recorded: effective as positive allosteric modulators; also recorded: effective in both Chimeras
same,Modulation of submaximum agonist-evoked membrane potential response (words),Chimera 2 [5]; [10],able to potentiate both Chimeras
same,EC50,"Chimera 2 [5]; read-out: FMP imaging: positive allosteric modulation EC50 (95% C.I.), submaximum NS6784 (60-70 nM)",324 µM
same,Maximum positive allosteric modulation efficacy,Chimera 2 [5]; submaximum NS6784 60-70 nM,177±8%
same,Competition / displacement of [3H]A-585539 binding,Chimera 2 [6],neither compound effectively displaced the binding
same,Directly evoked peak response normalized to 100 μM ACh,Chimera 2 [7]; 10 mM,26.4±7.1%
same,Directly evoked total charge (integral) normalized to 100 μM ACh,Chimera 2 [7]; 10 mM,52.4±10.3%
same,Direct current activation by modulator alone,"Chimera 2 [7]; genistein 100 μM, 5-HI 10 mM",Qualitatively similar responses were also obtained
same,Positive allosteric modulation of ACh-evoked current,"Chimera 2 [7]; genistein 30-50 μM, 5-HI 1 mM",effective as positive allosteric modulators
same,Percentage potentiation of submaximum agonist-evoked responses (mean±S.E.M.),Chimera 1 [8]; 100 μM ACh,428±23%
same,ng of ACh curve after modulator,Chimera 1 [8]; 1 mM 5-HI,1.4 ± 0.13
same,Effect of modulator on ACh-evoked current (words),Chimera 1 [8]; Xenopus oocytes,positive modulation is still observed
same,EC50,"Chimera 1 [8]; read-out: Positive allosteric modulation potency, two electrode voltage clamp: EC50 (95% C.I.), submaximum ACh (100 μM)-evoked response",500 µM
same,"Peak current amplitude evoked by compound alone, normalized to 10 μM ACh",Chimera 2 [9]; 1 mM,5.4+/−1.8%
same,ng of ACh curve after modulator,Chimera 2 [9]; 1 mM 5-HI,1.35 ± 0.25
same,"Peak current amplitude evoked by compound alone, normalized to 10 μM ACh",Chimera 2 [9]; 3 mM,37.8+/−11.6%
same,Percentage potentiation of submaximum agonist-evoked responses (mean±S.E.M.),Chimera 2 [9]; 10-30 μM ACh,262±39%
same,Direct current activation by modulator alone,Chimera 2 [9]; Xenopus oocytes,could also evoke responses in Chimera 2; also recorded: evoked unique agonist-like current
same,EC50,"Chimera 2 [9]; read-out: Positive allosteric modulation potency, two electrode voltage clamp: EC50 (95% C.I.), submaximum ACh (10-30 μM)-evoked response",496 µM
"NCCc1c[nH]c2ccc(O)cc12 [5-HT, 5-hydroxytryptamine]",Emax,"[2]; Xenopus oocytes, read-out: Maximum activation",100%
same,Agonist-evoked current,Chimera 8,significant inward currents
"C[N+](C)(C)CCO [Choline, choline]",EC50,"[1]; Agonist potency, two electrode voltage clamp, Xenopus oocyte: EC50 (95% C.I.), peak current amplitude",1120 µM
same,Emax,[1]; [11],81 ± 4%
same,Emax,Chimera 1 [4]; [12],132 ± 9%
same,FLIPR-FMP pEC50 ± SEM,Chimera 1 [4]; HEK-293 cells,2.9 ± 0.06
same,EC50,Chimera 1 [4]; [13],285 µM
same,Emax,Chimera 2 [5]; [12],101 ± 6%
same,FLIPR-FMP pEC50 ± SEM,Chimera 2 [5]; HEK-293 cells,4.4 ± 0.04
same,EC50,Chimera 2 [5]; [13],37.8 µM
same,Electrophysiology (POETs) pEC50 ± SEM,Chimera 1 [8]; Xenopus oocytes,2.9 ± 0.06
same,EC50,"Chimera 1 [8]; read-out: Agonist potency, two electrode voltage clamp, Xenopus oocyte: EC50 (95% C.I.), peak current amplitude",1510 µM
same,Emax,Chimera 1 [8]; [11],91 ± 7%
same,Electrophysiology (POETs) pEC50 ± SEM,Chimera 2 [9],3.7 ± 0.08
same,EC50,"Chimera 2 [9]; read-out: Agonist potency, two electrode voltage clamp, Xenopus oocyte: EC50 (95% C.I.)",214 µM
same,Emax,Chimera 2 [9]; [11],78 ± 4%
"CC[C@H](C)[C@H]1O[C@]2(CC[C@@H]1C)C[C@@H]1C[C@@H](C/C=C(\C)[C@@H](O[C@H]3C[C@H](OC)[C@@H](O[C@H]4C[C@H](OC)[C@@H](O)[C@H](C)O4)[C@H](C)O3)[C@@H](C)/C=C/C=C3\CO[C@@H]4[C@H](O)C(C)=C[C@@H](C(=O)O1)[C@]34O)O2 [IVM, ivermectin]",ng of ACh curve after modulator,[1]; 30 μM IVM,1.4 ± 0.16
same,Effect of modulator on ACh-evoked current (words),[1],substantial increase in the amplitude of the subsequent ACh-evoked current
same,ng of ACh curve after modulator,Chimera 1 [8]; 30 μM IVM,1.8 ± 0.05
same,Effect of modulator on ACh-evoked current (words),Chimera 1 [8]; Xenopus oocytes,absence of effects
same,ng of ACh curve after modulator,Chimera 2 [9]; 30 μM IVM,1.1 ± 0.12
